The results in this text go back to patent publication US8252832B2, “Kinesin inhibitors as cancer therapeutics” (Novartis AG, priority 2007, dated 2012).

What all share (assay): CellTiter-Glo, NCI60 panel
What all share (format): cell-based, human

One assay has as its system HCT-15. As to conditions: Colon; for GI50: Homo sapiens. An excerpt:
(§1) Identification of tumor types that are the most sensitive to the KSP inhibitors of the present invention can be accomplished using an unbiased approach that uses several cell-based assays. The assays chosen were as follows: • CellTiter-Glo®. This is an assay designed to measure ATP concentration in a cell culture, and can be correlated to cell number. Briefly CellTiter-Glo® (Promega Corporation) is a homogeneous method using the single CellTiter-Glo® reagent to detect ATP wherein ATP in the assay drives the activity of a thermostable luciferase to create a luminescent signal which can then be measured and correlated with the number of viable cells. Briefly, for adherent cells, 1,000 to 5,000 cells/well were plated in 96-well plates (100 μl/well) and let to adhere for 24 hours before being treated with drug. For non-adherent cells, 1,000 to 10,000 cells/well were plated in 96-well plates (100 μl/well) and immediately treated with drug. Drug dilutions were prepared in DMSO at 1000 times the final concentration. These dilutions were then diluted 1/100 in growth media before being added to the cells (11 μl/well) to achieve the desired final concentration. After 48 h in a 37° C. tissue culture incubator, the plates were processed for the CellTiter-Glo®assay according to the manufacturer's instructions. Protocol for a 72 hour cell proliferation assay: The 72 hour assay was performed the same way as the 48 hour assay except for the following modifications: For adherent cells, 500 to 5,000 cells/well were plated in 96-well plates (90 μl/well cell growth media) and left to adhere for 24 hours before being treated with drug. For non-adherent cells, 1,000 to 10,000 cells/well were plated in 96-well plates (90 μl/well cell growth media) and immediately treated with drug. Data values presented represent the concentration of test compound required for a 50% reduction in growth. • LDH release. The Cytotoxicity Detection KitPLUS (LDH) assay (Roche Diagnostics, Manheim, Germany) measures the amount of LDH released in the media by dying cells; LDH catalyzes the conversion of lactate into pyruvate. The enzymatic reaction is coupled to a chemical reaction that uses a tetrazolium salt to form a formazan that is red and can be detected by its absorbance at 490 nm. This assay measures the amount of cell death after drug treatment. Cells were plated at 10,000 cells/well in 96-well plates (100 μl/well). Adherent cells were let to adhere for 24 hours before being treated with drug, whereas non-adherent cells were immediately treated with drug. Drug dilutions were prepared in DMSO at 1000 times the final concentration. These dilutions were then diluted 1/100 in growth media before being added to the cells (11 μl/well) to achieve the desired final concentration. After 48 h in a 37° C. tissue culture incubator, the plates were processed for the Cytotoxicity Detection KitPLUS (LDH) assay according to the manufacturer's instructions. The media only values were subtracted from all the data points before analysis. Data values presented correspond to the compound concentration wherein LDH output is at half maximal level. • Caspase-Glo® 3/7. The Caspase-Glo® 3/7 Assay (Promega Corporation) is a homogeneous luminescent assay that measures caspase-3/7 activities. The assay provides a proluminescent caspase-3/7 DEVD-aminoluciferin substrate and a thermostable luciferase in a reagent optimized for caspase-3/7 activity, luciferase activity and cell lysis. Adding the single Caspase-Glo® 3/7 Reagent results in cell lysis, followed by caspase cleavage of the substrate. This liberates free aminoluciferin, which is consumed by the luciferase, generating a luminescent signal. The signal is proportional to caspase-3/7 activity. Data values presented correspond to the compound concentration wherein caspase 3/7 activity is at half maximal level. […]

For the next assay, the system named is HT29. Conditions: for GI50: Homo sapiens, HT-29, Colon.
From the text: as §1

A further assay deals with HCT-116. As to conditions: Colon; for GI50: Homo sapiens.
From the text: as §1

In the next assay the test system is T-47D. As to conditions: Breast; for GI50: Homo sapiens, T47D.
From the text: as §1

The test system of a further assay is COLO 205. Conditions: Colon; for GI50: Homo sapiens.
From the text: as §1

Setting [1] is: GI50 in nM, read-out: Log(GI50) (converted).

Structures are written as SMILES. Where two headings read alike, the source gives them in different places.

As to `CC(C)(C)[C@H](c1nc(-c2cc(F)ccc2F)cn1Cc1ccccc1)N(CC[C@H](N)CF)C(=O)CO` [Compound IIa], the “Differential vs mean Log(GI50)” value in the assay with HCT-15 is 0.754; in the assay with HT29 (Colon), −0.669; in the assay with HCT-116, 1.191; in the assay on T-47D, −0.669; in the assay on COLO 205, −0.669. The GI50 (commonly the concentration at which growth is held to half of that of the control) in the assay with HCT-15 (setting [1]) was 0.378 nM; in the assay with HCT-15 (read-out: GI50), 0.378 nM; with HT29 (setting [1]) it was 10 nM; in the assay on HT29 (read-out: GI50), 10 nM; in the assay with HCT-116 (setting [1]) it was 0.138 nM; in the assay with HCT-116 (read-out: GI50), 0.138 nM. For the same compound, the GI50 in the assay on T-47D (setting [1]), in the assay on T-47D (read-out: GI50), in the assay with COLO 205 (setting [1]) and in the assay with COLO 205 (read-out: GI50) was 10 nM each time.
